Assay results reported in US6218425A, “8-substituted B-nor-6-Thiaequilenin compounds having activity as selective estrogen receptor modulators” (Eli Lilly and Company, priority 1997, dated 2001).

Legend:
ovariectomized rats = experiment: Ovariectomized rat model of postmenopausal hyperlipidemia (serum cholesterol, uterine weight, uterine eosinophil infiltration); format: in vivo; settings: for Serum Cholesterol % Decrease / Uterine Weight Increase: versus ovariectomized controls
Procedure: Experimental models of postmenopausal hyperlipidemia are known in the art.
This uterine response to estrogen is well recognized in the art.
As expressed in the data below, estrogenicity also was assessed by evaluating the response of eosinophil infiltration into the uterus.
The data presented in Table 2 reflect the response per treatment group.

estrogen receptor = estrogen receptor (Homo sapiens, UniProt P03372); settings: competition with 0.5 nM 3H-17β-estradiol, MCF-7 lysate protein, 18 hours at 5° C.
Procedure: Representative compounds of the present invention were tested in an estrogen receptor binding assay in which the test compounds were allowed to compete for binding with tritiated 17β-estradiol.
In the assay, serial dilutions of the test compound were mixed with 0.5 nM of ^3 H-17β-estradiol, along with 0.5 mg/mL of protein from MCF-7 lysates, to a total volume of 0.14 mL. Binding was allowed to take place for 18 hours at 5° C., followed by the addition of 0.07 mL of dextran/charcoal and centrifugation to remove non-bound radioligand. Aliquots of supernate containing bound radioligand were mixed with scintillant and counted. Relative binding affinity (RBA) was calculated as: [formula]

[1] = test system: MCF-7 breast adenocarcinoma cells; experiment: MCF-7 Proliferation Assay; format: cell-based; settings: dose level of 500 nM
Procedure: A. MCF-7 Proliferation Assay Test Procedure MCF-7 breast adenocarcinoma cells (ATCC HTB 22) are maintained in MEM (minimal essential medium, phenol-red free, Sigma St. Louis Mo.) supplemented with 10% fetal bovine serum (FBS) (v/v), L-glutamine (2 mM), sodium pyruvate ([…]), HEPES (10 mM), non-essential amino acids, and bovine insulin (1 ug/mL). Ten days prior to the assay, the MCF-7 cells are switched to maintenance medium supplemented with 10% dextran-coated charcoal stripped fetal bovine serum (DCC-FBS) assay medium in place of the 10% FBS to deplete internal stores of estrogen. MCF-7 cells are removed from the maintenance flasks using a cell dissociating medium (Ca/Mg free HBSS; phenol-red free) supplemented with 10 mM HEPES and 2 mM EDTA. Cells are washed twice with the assay medium and adjusted to 80,000 cells/mL. Approximately 100 uL (8,000 cells)are added to a flat-bottomed micro culture well (Costar 3596) and incubated at 37° C. in a 5% CO2 humidified incubator for 48 hours to allow cell adherence and equilibrium after transfer. […] Samples are counted by liquid scintillation. Fifty percent inhibitory concentration of the test drugs (IC50) are determined versus the control (DMSO).

Chain of estrogen receptor (P03372 whole entry): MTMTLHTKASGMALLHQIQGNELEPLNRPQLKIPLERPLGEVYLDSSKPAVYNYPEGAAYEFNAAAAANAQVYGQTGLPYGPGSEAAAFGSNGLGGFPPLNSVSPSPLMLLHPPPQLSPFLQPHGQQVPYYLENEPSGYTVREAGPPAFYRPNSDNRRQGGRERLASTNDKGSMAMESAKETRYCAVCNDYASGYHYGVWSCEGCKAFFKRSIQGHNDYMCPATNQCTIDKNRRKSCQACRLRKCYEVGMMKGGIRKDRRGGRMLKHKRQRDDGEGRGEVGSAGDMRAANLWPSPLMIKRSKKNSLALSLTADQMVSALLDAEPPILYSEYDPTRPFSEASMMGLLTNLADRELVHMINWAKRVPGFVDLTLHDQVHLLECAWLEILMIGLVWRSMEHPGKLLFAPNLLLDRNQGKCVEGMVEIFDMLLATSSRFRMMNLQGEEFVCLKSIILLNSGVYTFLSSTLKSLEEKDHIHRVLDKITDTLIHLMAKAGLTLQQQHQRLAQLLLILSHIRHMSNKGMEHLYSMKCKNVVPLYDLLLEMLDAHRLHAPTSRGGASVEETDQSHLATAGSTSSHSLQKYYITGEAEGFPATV

Row | SMILES | Uterine Eosinophil (Vmax) (eosinophil peroxidase, Vmaximum) (ovariectomized rats; dose 0.01 mg/kg) | Serum Cholesterol % Decrease (ovariectomized rats; dose 0.01 mg/kg) | Uterine Weight Increase (ovariectomized rats; dose 0.01 mg/kg) | Uterine Eosinophil (Vmax) (eosinophil peroxidase, Vmaximum) (ovariectomized rats; dose 0.1 mg/kg) | Serum Cholesterol % Decrease (ovariectomized rats; dose 0.1 mg/kg) | Uterine Weight Increase (ovariectomized rats; dose 0.1 mg/kg) | Uterine Eosinophil (Vmax) (eosinophil peroxidase, Vmaximum) (ovariectomized rats; dose 1.0 mg/kg) | Serum Cholesterol % Decrease (ovariectomized rats; dose 1.0 mg/kg) | Uterine Weight Increase (ovariectomized rats; dose 1.0 mg/kg) | Uterine Eosinophil (Vmax) (eosinophil peroxidase, Vmaximum) (ovariectomized rats; dose 10.0 mg/kg) | Serum Cholesterol % Decrease (ovariectomized rats; dose 10.0 mg/kg) | Uterine Weight Increase (ovariectomized rats; dose 10.0 mg/kg) | Relative binding affinity (RBA) (estrogen receptor) | inhibition of breast cancer cell proliferation [1] | eosinophil infiltration into the uterus (in words) (ovariectomized rats; EE2 group) | serum cholesterol (in words) (ovariectomized rats; orally administered at 0.1 mg/kg/day) | uterine weight (in words) (ovariectomized rats; orally at 0.1 mg/kg/day, versus ovariectomized animals)
1 | COc1ccc2c3c(sc2c1)[C@@H]1CC[C@@H](O)[C@@]1(C)CC3 [Example 5, 3α-Hydroxy-8-methoxy-3aβ-methyl-2,3,3a,4,5,10bα-tetrahydro-1H-benz[b]indeno[5,4-d]thiophene] | 2.1 | 14.8% | -5.9% | 3.6 | -18.5% | 1.7% | 4.5 | 40.9% | 13.7% | 18.3 | 87.0% | 103.6% | – | – | – | – | –
2 | COc1ccc2c3c(sc2c1)[C@H]1CC[C@H](O)[C@]1(C)CC3 [Example 6, 3β-Hydroxy-8-methoxy-3aα-methyl-2,3,3a,4,5,10bβ-tetrahydro-1H-benz[b]indeno[5,4-d]thiophene] | – | – | – | 3.0 | -0.3% | 4.8% | 1.2 | -4.7% | 9.8% | 8.1 | 63.7% | 86.9% | – | – | – | – | –
3 | C[C@]12CCc3c(sc4cc(O)ccc34)[C@H]1CC[C@@H]2O [Example 7, 3β,8-Dihydroxy-3aβ-methyl-2,3,3a,4,5,10bβ-tetrahydro-1H-benz[b]indeno[5,4-d]thiophene] | 4.8 | 24.3% | -3.2% | 4.8 | 13% | 4.4% | 3.6 | 45.9% | 9.1% | 123.0 | 80.7% | 123.0% | 11 | inhibit breast cancer cell proliferation | – | – | –
4 | C[C@@]12CCc3c(sc4cc(O)ccc34)[C@@H]1CC[C@H]2O [Example 10, 3α,8-Dihydroxy-3aα-methyl-2,3,3a,4,5,10bα-tetrahydro-1H-benz[b]indeno[5,4-d]thiophene] | – | – | – | – | – | – | – | – | – | – | – | – | 4 | – | – | – | –
5 | C[C@]12CCc3c(sc4cc(O)ccc34)[C@@H]1CC[C@H]2O [Example 9, 3α,8-Dihydroxy-3aβ-methyl-2,3,3a,4,5,10bα-tetrahydro-1H-benz[b]indeno[5,4-d]thiophene] | 4.5 | 5.7% | 5.5% | 3.3 | 12.4% | 10.2% | 3.9 | 32.1% | -5.3% | 106.5 | 90.9% | 103.1% | 9 | – | – | – | –
6 | COc1ccc2c3c(sc2c1)C1=CC[C@H](O)[C@@]1(C)CC3 [Example 1, 3β-Hydroxy-8-methoxy-3aβ-methyl-3,3a,4,5-tetrahydro-2H-benz[b]indeno[5,4-d]thiophene] | 4.5 | 30.0% | -4.6% | 5.4 | 5% | 6.3% | 4.8 | 27.5% | 34.9% | 25.2 | 60.3% | 52.7% | – | – | – | – | –
7 | C[C@@]12CCc3c(sc4cc(O)ccc34)[C@H]1CC[C@H]2O [Example 11, 3α,8-Dihydroxy-3aα-methyl-2,3,3a,4,5,10bβ-tetrahydro-1H-benz[b]indeno[5,4-d]thiophene] | – | – | – | – | – | – | – | – | – | – | – | – | 4 | – | – | – | –
8 | C[C@]12CCc3c(sc4cc(O)ccc34)[C@@H]1CC[C@@H]2O [Example 8, 3β,8-Dihydroxy-3aβ-methyl-2,3,3a,4,5,10bα-tetrahydro-1H-benz[b]indeno[5,4-d]thiophene] | 4.2 | -1% | 13.7% | 4.5 | 10.6% | 1.4% | 3.0 | 16.9% | 0.2% | 14.7 | 30.7% | 48.4% | 16 | – | – | – | –
9 | C#C[C@]1(O)CC[C@H]2[C@@H]3CCc4cc(O)ccc4[C@H]3CC[C@@]21C [EE2, 17-a-ethynyl estradiol, reference compound] | – | – | – | 111.2 | 88.1% | 125.8% | – | – | – | – | – | – | – | – | substantial and expected increase in eosinophil infiltration | caused a decrease in serum cholesterol | substantially greater than the uterine weight of the ovariectomized animals
10 | COc1ccc2c3c(sc2c1)[C@@H]1CC[C@@H](O)[C@]1(C)CC3 [Example 4a, 3α-Hydroxy-8-methoxy-3aα-methyl-2,3,3a,4,5,10bα-hexahydro-1H-benz[b]indeno[5,4-d]thiophene] | – | – | – | 3.6 | -5.5% | 10.4% | 3.3 | -8.1% | 14.8% | 2.4 | 63.8% | 37.6% | – | – | – | – | –
11 | COc1ccc2c3c(sc2c1)[C@H]1CC[C@@H](O)[C@]1(C)CC3 [Example 4b, 3α-hydroxy-8-methoxy-3aα-methyl-2,3,3a,4,5,10bβ-hexahydro-1H-benz[b]indeno[5,4-d]thiophene] | – | – | – | 3.9 | -12% | -2.6% | 3.9 | -4.3% | 10.7% | 30.0 | 73.1% | 116.3% | – | – | – | – | –
